Converted amounts (≈) assume the structure as drawn.
Assays:
Assay in all cases: MIC, agar dilution test
Type in all cases: cell-based
E. coli A 261 = settings: Escherichia coli, A261, Isosensitest medium, Denley multipoint inoculator
From the text: (§1) Agar dilution test (Isosensitest medium); Denley multi-

Klebsiella 8085 = settings: Isosensitest medium, Denley multipoint inoculator
From the text: as §1

E. coli Neumann = settings: Escherichia coli, Isosensitest medium, Denley multipoint inoculator
From the text: as §1

E. coli T 7 = settings: Escherichia coli, T7, Isosensitest medium, Denley multipoint inoculator
From the text: as §1

| Structure (SMILES) | MIC (E. coli A 261) [µg/mL] | MIC (Klebsiella 8085) [µg/mL] | MIC (E. coli Neumann) [µg/mL] | MIC (E. coli T 7) [µg/mL] |
| --- | --- | --- | --- | --- |
| CN1CCN(c2c(F)cc3c(=O)c(C(=O)O)cn4c3c2OC2CCCC24)CC1 (centres unmarked) [Example 3] | 2 (≈ 5.16 µM) | 2 (≈ 5.16 µM) | 2 (≈ 5.16 µM) | 2 (≈ 5.16 µM) |
| CC1(C)COc2c(N3CCNCC3)c(F)cc3c(=O)c(C(=O)O)cn1c23 [Example 7] | 0.125 (≈ 0.346 µM) | 0.25 (≈ 0.692 µM) | 1 (≈ 2.77 µM) | 0.5 (≈ 1.38 µM) |

Source: US4847375A, “Antibacterial 1,8-bridged 4-quinoline-3-carboxylic acids” (Bayer Aktiengesellschaft, priority 1985, dated 1989)
